Laboratory results reported in patent US10434049B2, “Methods of producing compounds that stimulate hair regrowth, topical formulations, and methods of use” (Joventis S.A., priority 2013, dated 2019).

Tests used:
Format in all cases: in vivo, human
hair growth [1] = assay: Six-month study of twenty volunteers, monthly self-reported hair growth questionnaires; settings: for participants who noticed new hair growth: lotion applied to scalp at least once a day
Text: In a systematic study of twenty volunteers, including 8 women, study participants self-reported hair regrowth metrics by answering questionnaires at the end of each month of treatment with Formula (I) over the course of six months. The mean age of participants was 54 years old (SD=11 years). Participants had no history of hair implants and had normal eating and sleeping patterns. Participants first read and signed an informed consent form in which they were informed about the hair regeneration product, a lotion comprising Formula (I). The information about Formula (I) included that Formula (I) was designed to increase hair growth, that it was based on natural compounds, and that use of the product would not lead to harmful effects. Participants received explicit instructions on how to use the product, were asked to apply the product at least once a day on their scalp, and were asked not to use any other hair growth or regeneration products for the 6-month duration of the study. […] During this session photos were taken to measure and count any increases in hair regrowth, and participants answered questionnaires that probed the effects using Formula (I). Questionnaires comprised 14 yes or no questions based on Barber's 1998 the hair growth questionnaire. Barber et al., A hair growth questionnaire for use in the evaluation of therapeutic effects in men, J. DERMATOLOGICAL TREATMENT, Vol. 9(3), pp. 181-86 (1998). The questions included: • Did you notice new hair growth during the past month? • Did you notice new hair growth since the start of treatment? • Did you notice any new hair loss during the past month? • Did you notice any new hair loss since the start of the treatment? • Did you notice more hair loss than before since the start of the treatment? • Did you notice that your hairs felt thicker during the past month? • Did you notice that your hairs felt thicker since the start of the treatment? • Did you notice that your hairs felt more healthy during the past month? • Did you notice that your hairs felt more healthy since the start of the treatment? • The tenth and eleventh questions asked whether hairs felt less fragile during the past month and since the start of the treatment. • The final questions asked whether participants had noticed their hair color increasing and whether it became less grey/white during the past month and since the start of the treatment.

hair growth [2] = assay: Six-month study, hair growth by digital analysis of photographs of a chosen spot
Text: In a systematic study of twenty volunteers, including 8 women, study participants self-reported hair regrowth metrics by answering questionnaires at the end of each month of treatment with Formula (I) over the course of six months. The mean age of participants was 54 years old (SD=11 years). Participants had no history of hair implants and had normal eating and sleeping patterns. Participants first read and signed an informed consent form in which they were informed about the hair regeneration product, a lotion comprising Formula (I). The information about Formula (I) included that Formula (I) was designed to increase hair growth, that it was based on natural compounds, and that use of the product would not lead to harmful effects. Participants received explicit instructions on how to use the product, were asked to apply the product at least once a day on their scalp, and were asked not to use any other hair growth or regeneration products for the 6-month duration of the study. […] During this session photos were taken to measure and count any increases in hair regrowth, and participants answered questionnaires that probed the effects using Formula (I). […] Hair growth was measured by counting and estimating the total amount of thick/thin hairs on the specific spot, based on digital analysis of each photograph.

hair growth [3] = assay: Before/after photographs of individual subjects (FIG. 2, FIG. 11)
Text: The subject in FIG. 2A starts out with a complete bald spot. […] Before treatment with Formula (I), the subject shown in FIG. 2C has dark, balding hair.

burn = assay: Burned hands of a lab technician, one hand treated, other untreated; settings: treated for one month; untreated hand developed calluses
Description: Along these lines, a lab technician who burned both hands, and hair regrowth at the site of the burn was assessed. One hand was treated for one month with a composition comprising Formula (I), and the other hand was left untreated. […] The untreated hand developed calluses instead.

[4] = tested on: collagen in sun damaged skin; assay: Cosmetic collagen regeneration clinical trial, high-resolution ultrasound scanner images of skin; settings: ultrasound images before and after treatment, sun damaged skin (FIG. 12A/12B)
Description: In yet further aspects of the inventive subject matter, cosmetic collagen regeneration effects of Formula (I) were assessed in a clinical trial run by Sempervivum, a medical esthetics company. Twenty-four volunteers (22 women and 2 men) participated in this study. Participants were on average 59 years old (Mean (M)=59 years, Standard Deviation (SD)=12 years). In this case, the age of the participants is 59 years with an average deviation of 12 years. Participants had no history of cosmetic surgery and stated to have normal eating and sleeping patterns. High-resolution ultrasound scanner images of collagen in sun damaged skin are shown in FIG. 12A (before treatment) and FIG. 12B (after treatment). […] It also appears that more interconnected collagen fibers are present in the dermis of the skin, and spots representing collagen seem to be more connected and closer to the epidermal layer.

[5] = over the course of treatment, questionnaires (FIG. 10)

CC1=CC2(C(C)C)CC(=C1)C2(C)C (centres unmarked) [Formula (I), 3,6,6-trimethyl-5-(propan-2-yl)bicyclo[3.1.1]hepta-1,3-diene]
participants who noticed new hair growth (hair growth [1]; after 1 month of treatment, self-reported): 47%
participants who noticed new hair growth (hair growth [1]; after 6 months of treatment, self-reported): 94%
participants who noticed an increase in hair loss (hair growth [1]; at some point during treatment, self-reported): 20%
overall effect on hair growth (hair growth [1]; conclusion from questionnaires and photo analyses, 6-month study): highly effective in stimulating hair growth
participants who noticed an increase in healthy hair, thicker hair and less fragile hair (hair growth [1]; during the last month of treatment and since the start of treatment, self-reported (FIG. 5)): 85-92%
hair color in participants with white/grey hair before treatment (hair growth [1]; last month of treatment and since start of treatment, self-reported (FIG. 6)): significant increase in color
amount of thick hair in participants with thin hair (hair growth [1]; over the course of treatment (FIG. 9)): significant increase in the amount of thick hair
amount of white hair in participants with white/grey hair (hair growth [1]; [5]): increased to a lesser extent
black hair as percent of total hair in participants with white/grey hair (hair growth [1]; [5]): increase in the percent of total hair that was black
participants who noticed that some new hairs fell out (hair growth [1]; over the whole course of the treatment, self-reported, alopecia patients excluded): 14%
increase in long fine and thick hairs in balding participants (hair growth [2]; after 6 months, photo analysis (FIG. 8)): triple to quadruple overall increases
hair growth in bald participants, including alopecia patients (hair growth [2]; photo analysis, participants initially with no hair at the probed place (FIG. 7)): both fine hairs and more thick hairs suddenly started to grow
hair regrowth at alopecia site, subject who lost all body hair after trauma (hair growth [3]; after 4 months of treatment (FIG. 11A/11B)): hair growth at the alopecia site
hair regrowth, subject with complete bald spot (hair growth [3]; after 6 months of treatment (FIG. 2A/2B)): white hair has grown into the bald spot
hair regrowth, subject with dark, balding hair (hair growth [3]; after 6 months of treatment (FIG. 2C/2D)): dark hair has begun to regrow
skin outcome of burned hand (burn): developed new smooth skin
collagen in skin after treatment [4]: significant increases in collagen
